In paper PMC3250963, “Novel dimeric DOTA-coupled peptidic Y1-receptor antagonists for targeting of neuropeptide Y receptor-expressing cancers” (EJNMMI Research, 2011):
Bridge positions count the residues as written; N and C are the ends. Square brackets hold non-standard residues; d marks the D form. Peptide text beside a SMILES is read from it. I, II: the chains in the order shown. * marks the point of attachment. DOTA = O=C(O)CN1CCN(CC(=O)O)CCN(CC(=O)*)CCN(CC(=O)O)CC1; Nle = CCCC[C@H](N)C(=O)O; Dap = NC[C@H](N)C(=O)O

Columns and labels:
NPY Y2 receptor = biological target: T1, NPY Y2 receptor (Homo sapiens, UniProt P49146); assay: Receptor autoradiography competition binding (125I-hPYY) on SH-SY5Y cell membrane pellet sections; conditions: SH-SY5Y membrane pellets, 125I-hPYY displacement; n ≥ 3; read-out: Binding affinity Y2 (IC50)
T1 construct: SH-SY5Y cells endogenously expressing Y2; endogenous in cells; host or cells: SH-SY5Y
T1 sequence (P49146 1-381): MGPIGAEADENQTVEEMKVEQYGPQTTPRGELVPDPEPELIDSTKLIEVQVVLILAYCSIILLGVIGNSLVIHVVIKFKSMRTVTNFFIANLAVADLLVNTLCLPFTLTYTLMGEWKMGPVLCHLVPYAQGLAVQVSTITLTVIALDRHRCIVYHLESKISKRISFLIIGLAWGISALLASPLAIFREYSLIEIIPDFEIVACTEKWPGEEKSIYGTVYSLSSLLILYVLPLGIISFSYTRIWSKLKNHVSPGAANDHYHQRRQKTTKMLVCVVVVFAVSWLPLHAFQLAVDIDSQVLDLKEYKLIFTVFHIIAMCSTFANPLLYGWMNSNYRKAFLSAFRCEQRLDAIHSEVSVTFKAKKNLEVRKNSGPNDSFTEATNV
Experimental: (§1) The neuroepithelioma cell line SK-N-MC endogenously expressing the NPY Y1 receptor was obtained from ATCC (HTB-10; LGC Standards, Teddington, Middlesex, UK) and cultured at 37°C and 5% CO2 in MEM with GlutaMax I and supplemented with 10% FBS, 100 U/ml penicillin and 100 μg/ml streptomycin, 1 mM MEM sodium pyruvate, and MEM non-essential amino acids (× 1). The neuroblastoma cell line SH-SY5Y endogenously expressing the NPY Y2 receptor, kindly provided by Dr. Paolo Paganetti (Novartis, Basel, Switzerland), was cultured at 37°C and 5% CO2 in MEM/Ham's F12 with GlutaMax I and supplemented with 10% FBS, 100 U/ml penicillin and 100 μg/ml streptomycin, 1 mM MEM sodium pyruvate, and MEM non-essential amino acids (× 1). All culture reagents were from Gibco BRL, Life Technologies, (Grand Island, NY, USA).
(§2) Binding affinities of the compounds were assessed using sections of cell membrane pellets of SK-N-MC for Y1 or SH-SY5Y for Y2, as described before. Briefly, membrane pellets were prepared and stored at -80°C, and receptor autoradiography was performed on 20-μm-thick cryostat (Microm HM 500, Walldorf, Germany) sections of the membrane pellets, mounted on microscope slides and stored at -20°C as previously described for other cell lines and receptors. The slides were preincubated in Krebs-Ringer solution (NaCl 119 mM, KCl 3.2 mM, KH2PO4 1.19 mM, MgSO4 1.19 mM, NaHCO3 25 mM, CaCl2 2.53 mM, D-glucose 10 mM; pH 7.4) for 60 min at room temperature. Then, they were incubated for 120 min in the incubation solution containing the Krebs-Ringer solution, 0.1% BSA, 0.05% bacitracin, and 10,000 cpm/100 μl of the ^125I-labeled human PYY (hPYY; 2,000 Ci/mmol; Anawa, Wangen, Switzerland). Membrane pellet sections were incubated with ^125I-hPYY in increasing concentrations ranging from 0.1 nM up to 1,000 nM of non-labeled hPYY, as control, or with the compounds to be tested. After the incubation, the slides were washed two times for 5 min and then rinsed four times in ice-cold preincubation solution. After drying, the slides were exposed to Kodak films Biomax MR® for 7 days. IC50 values were calculated after quantification of the data using a computer-assisted image processing system (Analysis Imaging System, Interfocus, Mering, Germany). Tissue standards (autoradiographic [^125I] and/or [^14C] microscales, GE Healthcare, Little Chalfont, UK) containing a known amount of isotope, cross-calibrated to tissue-equivalent ligand concentrations were used for quantification.

NPY Y1 receptor [1] = biological target: T2, NPY Y1 receptor (Homo sapiens, UniProt P25929); assay: Receptor autoradiography competition binding (125I-hPYY) on SK-N-MC cell membrane pellet sections; conditions: for IC50: SK-N-MC membrane pellets, 125I-hPYY displacement, mean ± SEM, n ≥ 3, read-out: Binding affinity Y1 (IC50); for Y1 binding affinity in words (displacement of 125I-hPYY): SK-N-MC cell membrane pellet sections
T2 construct: SK-N-MC cells endogenously expressing Y1; host or cells: SK-N-MC
T2 sequence (P25929 1-384): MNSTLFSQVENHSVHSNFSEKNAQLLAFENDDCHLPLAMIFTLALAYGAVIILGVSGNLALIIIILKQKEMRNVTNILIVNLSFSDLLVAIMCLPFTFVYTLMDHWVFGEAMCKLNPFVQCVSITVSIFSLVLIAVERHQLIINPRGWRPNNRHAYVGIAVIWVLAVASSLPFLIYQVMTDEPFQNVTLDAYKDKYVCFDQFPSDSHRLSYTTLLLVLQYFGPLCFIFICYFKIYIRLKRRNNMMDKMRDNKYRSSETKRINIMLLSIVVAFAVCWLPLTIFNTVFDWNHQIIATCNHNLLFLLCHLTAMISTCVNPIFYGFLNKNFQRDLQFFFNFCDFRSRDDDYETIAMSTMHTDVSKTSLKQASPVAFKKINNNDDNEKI
Experimental: as §1, §2

NPY Y1 receptor [2] = biological target: T2, NPY Y1 receptor; assay: Forskolin-stimulated adenylate cyclase activity (cAMP flashplate assay) in SK-N-MC cells; type: cell-based; conditions: 10 μM forskolin; for Functional assay cAMP for Y1: analog 20 μM alone or with 100 nM [Leu31,Pro34]-hPYY
Experimental: Adenylate cyclase activity was determined in SK-N-MC cells using the adenylate cyclase activation flashplate assay (SMP004) from PerkinElmer (Waltham, MA, USA). SK-N-MC cells were seeded in 96-well culture plates at 25,000 cells/well and cultured for 48 h at 37°C and 5% CO2. Culture medium was then removed from the wells and fresh medium (100 μL) containing 0.5 mM 3-isobutyl-1-methylxanthine (IBMX) was added to each well. Cells were incubated for 30 min at 37°C. Medium was then removed and replaced with fresh medium containing 0.5 mM IBMX, with or without 10 μM forskolin and various concentrations of the peptides to be analyzed. Cells were incubated for 30 min at 37°C. After removal of the medium, cells were lysed and cAMP accumulation was determined using the SMP004 kit from PerkinElmer according to the instructions of the manufacturers.
Figure 4 Effect of various Y1 affine analogs on forskolin-stimulated intracellular cAMP accumulation in SK-N-MC cells. Cells were incubated for 30 min with 10 μM forskolin either alone, or with 10 μM forskolin in the presence of 20 μM or 100 nM of the reference compound [Leu^31, Pro^34]-PYY (LP-PYY), or with 10 μM forskolin in the presence of the various Y1 affine analogs either alone at a concentration of 20 μM or at a concentration of 20 μM in the presence of 100 nM LP-PYY. Intracellular cAMP accumulation was then determined as described in Methods. Results are shown as percentage of the 10 μM forskolin effect on intracellular cAMP accumulation.
Cells were incubated for 30 min with 10 μM forskolin in the presence of [Leu^31, Pro^34]-PYY (LP-PYY) at concentrations ranging between 0.01 nM and 20 μM alone (solid circle) or with 10 μM forskolin in the presence of LP-PYY at concentrations ranging between 0.01 nM and 20 μM supplemented with a fixed concentration of 20 μM of the analog 11 (solid square). […] Compound 11 given alone at a concentration of 20 μM has no effect on the accumulation of forskolin-stimulated cAMP (solid triangle).

Y5 = tested on: Y5; parameters: method as in PMID 12182951; conditions: rats, in vivo; cited from earlier work

Row | IC50 (NPY Y2 receptor) [µM] | IC50 (NPY Y1 receptor [1]) [µM] | Functional assay cAMP for Y1 (NPY Y1 receptor [2]) | Compound | Y1 binding affinity in words (displacement of 125I-hPYY) (NPY Y1 receptor [1]) | other results
1 | > 1 | 0.029 ± 0.007 |  | CCCC[C@H](NC(=O)[C@H](CCCNC(=N)N)NC(=O)[C@H](Cc1c[nH]c2ccccc12)NC(=O)[C@H](CSSC[C@H](NC(=O)[C@@H]1CCCN1C(=O)[C@H](CC(N)=O)NC(=O)[C@@H](N)[C@@H](C)CC)C(=O)N[C@@H](Cc1c[nH]c2ccccc12)C(=O)N[C@@H](CCCNC(=N)N)C(=O)N[C@@H](CCCC)C(=O)N[C@@H](CCCNC(=N)N)C(=O)N[C@@H](Cc1ccc(O)cc1)C(N)=O)NC(=O)[C@@H]1CCCN1C(=O)[C@H](CNC(=O)CN1CCN(CC(=O)O)CCN(CC(=O)O)CCN(CC(=O)O)CC1)NC(=O)[C@@H](N)[C@@H](C)CC)C(=O)N[C@@H](CCCNC(=N)N)C(=O)N[C@@H](Cc1ccc(O)cc1)C(N)=O [Analog 8] (I: H-I[Dap](DOTA)PCWR[Nle]RY-NH2 / II: H-INPCWR[Nle]RY-NH2; disulfide I:4-II:4) |  | 
2 | > 1 | 0.127 ± 0.05 |  | CCCC[C@H](NC(=O)[C@H](CCCNC(=N)N)NC(=O)[C@H](Cc1c[nH]c2ccccc12)NC(=O)[C@H](CSSC[C@H](NC(=O)[C@@H]1CCCN1C(=O)[C@H](CCCCN)NC(=O)[C@@H](N)[C@@H](C)CC)C(=O)N[C@@H](Cc1c[nH]c2ccccc12)C(=O)N[C@@H](CCCNC(=N)N)C(=O)N[C@@H](CCCC)C(=O)N[C@@H](CCCNC(=N)N)C(=O)N[C@@H](Cc1ccc(O)cc1)C(N)=O)NC(=O)[C@@H]1CCCN1C(=O)[C@H](CCCCN)NC(=O)[C@@H](N)[C@@H](C)CC)C(=O)N[C@@H](CCCNC(=N)N)C(=O)N[C@@H](Cc1ccc(O)cc1)C(N)=O [Analog 9] (I: H-IKPCWR[Nle]RY-NH2 / II: H-IKPCWR[Nle]RY-NH2; disulfide I:4-II:4) |  | 
3 | > 1 | 0.013 ± 0.003 | Antagonist | CCCC[C@H](NC(=O)[C@H](CCCNC(=N)N)NC(=O)[C@H](Cc1c[nH]c2ccccc12)NC(=O)[C@H](CSSC[C@H](NC(=O)[C@@H]1CCCN1C(=O)[C@H](CC(N)=O)NC(=O)[C@@H](N)[C@@H](C)CC)C(=O)N[C@@H](Cc1c[nH]c2ccccc12)C(=O)N[C@@H](CCCNC(=N)N)C(=O)N[C@@H](CCCC)C(=O)N[C@@H](CCCNC(=N)N)C(=O)N[C@@H](Cc1ccc(O)cc1)C(N)=O)NC(=O)[C@@H]1CCCN1C(=O)[C@H](CCCCNC(=O)CN1CCN(CC(=O)O)CCN(CC(=O)O)CCN(CC(=O)O)CC1)NC(=O)[C@@H](N)[C@@H](C)CC)C(=O)N[C@@H](CCCNC(=N)N)C(=O)N[C@@H](Cc1ccc(O)cc1)C(N)=O [Analog 11] (I: H-IK(DOTA)PCWR[Nle]RY-NH2 / II: H-INPCWR[Nle]RY-NH2; disulfide I:4-II:4) | high-affinity displacements of ^125I-hPYY | Shift of the dose response curve of [Leu31,Pro34]-hPYY to the right (NPY Y1 receptor [2]; 20 μM analog with increasing concentration of [Leu31,Pro34]-hPYY up to 20 μM): at least three orders of magnitude; Inhibition of forskolin-stimulated cAMP accumulation, analog given alone (NPY Y1 receptor [2]; analog alone at 20 μM): has no effect

More lines, now with the values behind:

Row | Compound | IC50 (NPY Y2 receptor) [µM] | IC50 (NPY Y1 receptor [1]) [µM] | Functional assay cAMP for Y1 (NPY Y1 receptor [2]) | Y1 binding affinity in words (displacement of 125I-hPYY) (NPY Y1 receptor [1]) | other results
4 | CCCC[C@H](NC(=O)[C@H](CCCNC(=N)N)NC(=O)[C@H](Cc1c[nH]c2ccccc12)NC(=O)[C@H](CSSC[C@H](NC(=O)[C@@H]1CCCN1C(=O)[C@H](CCCCNC(=O)CN1CCN(CC(=O)O)CCN(CC(=O)O)CCN(CC(=O)O)CC1)NC(=O)[C@@H](N)[C@@H](C)CC)C(=O)N[C@@H](Cc1c[nH]c2ccccc12)C(=O)N[C@@H](CCCNC(=N)N)C(=O)N[C@@H](CCCC)C(=O)N[C@@H](CCCNC(=N)N)C(=O)N[C@@H](Cc1ccc(O)cc1)C(N)=O)NC(=O)[C@@H]1CCCN1C(=O)[C@H](CCCCNC(=O)CN1CCN(CC(=O)O)CCN(CC(=O)O)CCN(CC(=O)O)CC1)NC(=O)[C@@H](N)[C@@H](C)CC)C(=O)N[C@@H](CCCNC(=N)N)C(=O)N[C@@H](Cc1ccc(O)cc1)C(N)=O [Analog 10] (I: H-IK(DOTA)PCWR[Nle]RY-NH2 / II: H-IK(DOTA)PCWR[Nle]RY-NH2; disulfide I:4-II:4) | > 1 | 0.283 ± 0.052 | Antagonist | lower affinity displacements of ^125I-hPYY | 
5 | Bis(31/31')[Cys^31, Nva^34]NPY(27-36)-NH2 |  |  |  |  | Stimulation of food intake (Y5): able to stimulate in vivo the food intake in rats
6 | [Leu^31, Pro^34]-hPYY [reference compound] |  |  |  |  | Inhibition of forskolin-stimulated cAMP accumulation by agonist (NPY Y1 receptor [2]; agonist at 20 μM and 100 nM): efficiently inhibited forskolin-stimulated cAMP accumulation
